Structures are written as SMILES.

We go through eleven molecules from patent US6420558B1, “Aminopiperidine derivates as integrin αvβ3 antagonists” (Meiji Seika Kaisha, Ltd., priority 1998, dated 2002).

Assay [1] deals with GP IIb/IIIa (Homo sapiens, UniProt P05106+P08514). As to the kind of experiment: GP IIb/IIIa antagonistic activity (method of Pharmacological Test 2 in WO 94/21599). It is filed as binding. On the procedure:
GP IIb/IIIa Antagonistic Activity and Human Platelet Aggregation Inhibitory Activity
GP IIb/IIIa antagonistic activity was measured for the compounds according to the present invention. The measurement of the GP IIb/IIIa antagonistic activity was carried out according to the method described in Pharmacological Test 2 in WO 94/21599.

Assay [2] deals with T1, integrin αvβ3 (vitronectin receptor purified from the human placenta) (Homo sapiens, UniProt P05106+P06756).
T1 construct: a vitronectin receptor (protein content: 118 μg/ml) purified from the human placenta; from tissue; host or cells: human placenta
T1 sequence (P06756 31-889 limits assumed): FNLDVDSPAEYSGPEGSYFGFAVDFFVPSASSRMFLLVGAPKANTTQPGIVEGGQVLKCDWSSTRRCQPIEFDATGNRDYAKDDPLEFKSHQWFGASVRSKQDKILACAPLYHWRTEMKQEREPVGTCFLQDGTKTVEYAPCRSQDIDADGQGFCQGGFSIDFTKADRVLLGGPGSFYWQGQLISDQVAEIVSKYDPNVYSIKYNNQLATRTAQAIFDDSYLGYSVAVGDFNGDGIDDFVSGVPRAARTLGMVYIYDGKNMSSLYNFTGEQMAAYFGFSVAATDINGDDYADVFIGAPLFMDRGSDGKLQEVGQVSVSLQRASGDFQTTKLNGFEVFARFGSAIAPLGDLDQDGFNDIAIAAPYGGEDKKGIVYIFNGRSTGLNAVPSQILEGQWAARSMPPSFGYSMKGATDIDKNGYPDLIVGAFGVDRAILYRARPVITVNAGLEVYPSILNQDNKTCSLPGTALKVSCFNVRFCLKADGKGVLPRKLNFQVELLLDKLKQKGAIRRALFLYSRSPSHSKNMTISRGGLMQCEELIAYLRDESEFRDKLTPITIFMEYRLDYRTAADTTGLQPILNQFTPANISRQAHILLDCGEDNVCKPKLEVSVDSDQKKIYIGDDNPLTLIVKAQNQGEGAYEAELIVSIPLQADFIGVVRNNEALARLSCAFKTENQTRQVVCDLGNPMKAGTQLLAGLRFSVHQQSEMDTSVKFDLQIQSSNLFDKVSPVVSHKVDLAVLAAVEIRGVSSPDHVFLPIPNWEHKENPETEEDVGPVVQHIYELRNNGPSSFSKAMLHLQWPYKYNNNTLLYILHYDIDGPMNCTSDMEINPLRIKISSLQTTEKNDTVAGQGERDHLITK
T1 sequence (P06756 891-1048 limits assumed): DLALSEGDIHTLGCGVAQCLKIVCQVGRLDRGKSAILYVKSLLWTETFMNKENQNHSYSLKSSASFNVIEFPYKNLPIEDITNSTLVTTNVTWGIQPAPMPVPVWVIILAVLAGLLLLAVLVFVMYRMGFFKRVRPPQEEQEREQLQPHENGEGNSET
T1 sequence (P05106 27-788): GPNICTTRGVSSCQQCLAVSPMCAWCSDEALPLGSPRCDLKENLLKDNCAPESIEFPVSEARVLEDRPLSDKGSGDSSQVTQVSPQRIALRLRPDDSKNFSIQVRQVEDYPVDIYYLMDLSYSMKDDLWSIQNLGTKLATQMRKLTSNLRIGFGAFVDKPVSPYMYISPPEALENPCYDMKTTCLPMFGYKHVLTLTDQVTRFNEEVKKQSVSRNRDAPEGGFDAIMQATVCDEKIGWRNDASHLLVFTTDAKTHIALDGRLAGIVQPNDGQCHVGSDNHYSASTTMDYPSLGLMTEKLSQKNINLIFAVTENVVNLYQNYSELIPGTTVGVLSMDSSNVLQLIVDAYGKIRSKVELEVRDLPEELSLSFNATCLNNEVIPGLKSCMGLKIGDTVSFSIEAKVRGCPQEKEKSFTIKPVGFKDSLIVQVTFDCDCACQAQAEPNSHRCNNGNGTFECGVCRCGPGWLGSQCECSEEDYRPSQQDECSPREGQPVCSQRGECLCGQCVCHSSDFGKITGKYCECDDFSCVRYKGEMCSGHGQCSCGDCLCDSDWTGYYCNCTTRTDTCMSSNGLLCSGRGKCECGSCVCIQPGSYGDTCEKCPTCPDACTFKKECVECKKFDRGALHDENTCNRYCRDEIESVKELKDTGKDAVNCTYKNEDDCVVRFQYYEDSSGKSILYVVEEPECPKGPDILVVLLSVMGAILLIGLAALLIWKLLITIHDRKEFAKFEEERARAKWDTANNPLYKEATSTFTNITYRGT
The experiment in a line: αvβ3 binding assay (vitronectin-vitronectin receptor binding assay). The note with it: vitronectin binding to human placenta vitronectin receptor; read-out: integrin αvβ3 antagonistic activity, IC50 value. Here is the method: Integrin αvβ3 antagonistic activity was measured for the compounds according to the present invention in a vitronectin-vitronectin receptor binding assay system in accordance with the method of Kouns et al. (W. C. Kouns, D. Kirchhofer, P. Hadvary, A. Edenhofer, T. Weller, G. Pfenninger, H. R. Baumgartner, L. K. Jennings and B. Steiner, Blood, 80, 2539-2547 (1992)).
Specifically, a vitronectin receptor (protein content: 118 μg/ml) purified from the human placenta in accordance with the method of Pytela et al. (R. Pytela, M. D. Pierschbacher, S. Argraves, S. Suzuki, and E. Ruoslahti, Method in Enzymology, 144, 475-489 (1987)) was diluted 50 times with TBS (20 mM Tris-HCl, 150 mM NaCl, 1 mM CaCl2, 1 mM MgCl2, pH 7.4), and distributed and coated on wells (50 μl/well) of a plate (Maxisorp, Nunc, 96 well Immuno Plate). The plate was then allowed to stand at 4° C. for 1 day, washed twice with TBS (200 μl/well), and then subjected to blocking with TBS (150 μl/well) containing 1% bovine serum albumin (SIGMA) at 4° C. overnight. After washing twice with TBS (200 μl/well), 50 μl of vitronectin (CALBIOCHEM) adjusted to 0.2 μg/ml by the addition of TBS (TBS-Tween) containing 0.01% Tween-20 was mixed with 50 μl of each test compound adjusted to each concentration in wells, and a reaction was allowed to proceed at room temperature for 4 hr. After the completion of the reaction, the wells were washed five times with TBS-Tween. A solution prepared by diluting anti-vitronectin rabbit antiserum (CHEMICON) 500 times with TBS-Tween was added as a primary antibody in an amount of 50 μl/well, and a reaction was allowed to proceed at room temperature for 1.5 hr. After washing five times with 200 μl/well of TBS-Tween, a peroxidase (POD)-labeled anti-rabbit IgG antibody solution (CAPPEL) diluted 500 times with TBS-Tween was added as a secondary antibody in an amount of 50 μl/well, and a reaction was allowed to proceed at room temperature for 1.5 hr. After washing five times with TBS-Tween (200 μl/well), ABTS (2,2′-azino-bis(3-ethylbenzthiazoline-6-sulfonic acid), SIGMA) was adjusted to 1 mg/ml by the addition of a ten-fold diluted POD-buffer (ZYMED), and added in an amount of 50 μl/well, and a reaction was allowed to proceed for 5 to 10 min. A 0.1 M citric acid buffer (pH 4.3) containing 0.05% NaN3 was added in an amount of 50 μl/well to stop the reaction, followed by the measurement of the absorbance at 415 nm with a microplate reader (MTP 32, Corona Electric) (reference: 675 nm). The total binding was defined as the absorbance after a reaction using 50 μl of TBS-Tween instead of the test compound, and the non-specific binding (100% inhibition) was defined as the absorbance after a reaction using 50 μl of TBS-Tween containing 2×10^−3 M RGDS. The inhibition was calculated by the following equation: [formula]
IC50 was determined from a primary regression line of the logarithm of each concentration of the test compound and the logarithm of (100−inhibition)/inhibition.

For assay [3], the system named is human vascular smooth muscle cells adhering to immobilized human vitronectin. As to the kind of experiment: Inhibitory activity against adhesion of human vascular smooth muscle cells to vitronectin. The note with it: 1.5 h; human vitronectin-coated plate, 90 min. It is filed as cell-based. Here is the method:
Inhibitory Activity Against Adhesion of Human Vascular Smooth Muscle Cells to Vitronectin
The adhesion of human vascular smooth muscle cells =+to immobilized human vitronectin was measured in accordance with the method of Liaw et al. (Liaw L, Almeida M, Hart C E, Schwartz S M, and Giachelli C M, Circulation Research, 74 (2), 214-224 (1994)).
A Dulbecco's phosphate buffer (Dulbecco's PBS(−), Nissui Pharmaceutical Co., Ltd.) solution of human plasma-derived vitronectin (CALBIOCHEM) adjusted to a concentration of 4 μg/ml was first added to wells (50 μl/well) of a microplate (Maxisorp, Nunc), and a reaction for immobilization was allowed to proceed at 4° C. overnight. After washing twice with 150 μl of Dulbecco's phosphate buffer, a Dulbecco's phosphate buffer containing 10 mg/ml of bovine serum albumin (SIGMA) was added, followed by blocking at 37° C. for one hr. The assay plate was washed twice with 150 μl of Dulbecco's phosphate buffer.
Separately, human vascular smooth muscle cells cultivated at 37° C. under 5% carbon dioxide in a medium for vascular smooth muscle cells (Clonetics) were separated using a Dulbecco's phosphate buffer containing trypsin-EDTA (GIBCO BRL), washed with Dulbecco's phosphate buffer, and then suspended in a Dulbecco's modified Eagle's basal medium (Nissui Pharmaceutical Co., Ltd.) containing 0.1% bovine serum albumin to a concentration of 5×10^5/ml.
Next, 50 μl of a Dulbecco's modified Eagle's basal medium containing 10 mg/ml of bovine serum albumin with a medicament added thereto was added to the wells of the human vitronectin-coated assay microplate, followed by pre-cultivation under 5% carbon dioxide at 37° C. for 10 min. Thereafter, 50 μl of the medium with human vascular smooth muscle cells suspended therein was added thereto, and the plate was thoroughly stirred. A reaction was allowed to proceed under 5% carbon dioxide at 37° C. for 90 min. The reaction solution containing non-adherent cells were then removed, followed by washing three times with Dulbecco's phosphate buffer. For the adhered cells, 100 μl of a Dulbecco's phosphate buffer containing 4% paraformaldehyde (Wako Pure Chemical Industries, Ltd.) was added, and immobilization was allowed to proceed at room temperature for 10 min. Next, 100 μl of a Dulbecco's phosphate buffer containing 0.5% Toluidine Blue (Croma) and 4% paraformaldehyde was added, and staining was allowed to proceed at room temperature for 5 min, followed by thorough washing with distilled water. The inside of the wells was then air-dried, and a 1% aqueous sodium dodecylsulfate solution was then added to perform cytolysis. The absorbance of the microplate thus obtained was measured at 595 nm. […] The inhibition was calculated by the following equation. IC50 was determined from a primary regression line of the logarithm of each concentration of the test compound and the logarithm of (100−inhibition)/inhibition. [formula]

Chain of GP IIb/IIIa (P08514 32-887 limits assumed): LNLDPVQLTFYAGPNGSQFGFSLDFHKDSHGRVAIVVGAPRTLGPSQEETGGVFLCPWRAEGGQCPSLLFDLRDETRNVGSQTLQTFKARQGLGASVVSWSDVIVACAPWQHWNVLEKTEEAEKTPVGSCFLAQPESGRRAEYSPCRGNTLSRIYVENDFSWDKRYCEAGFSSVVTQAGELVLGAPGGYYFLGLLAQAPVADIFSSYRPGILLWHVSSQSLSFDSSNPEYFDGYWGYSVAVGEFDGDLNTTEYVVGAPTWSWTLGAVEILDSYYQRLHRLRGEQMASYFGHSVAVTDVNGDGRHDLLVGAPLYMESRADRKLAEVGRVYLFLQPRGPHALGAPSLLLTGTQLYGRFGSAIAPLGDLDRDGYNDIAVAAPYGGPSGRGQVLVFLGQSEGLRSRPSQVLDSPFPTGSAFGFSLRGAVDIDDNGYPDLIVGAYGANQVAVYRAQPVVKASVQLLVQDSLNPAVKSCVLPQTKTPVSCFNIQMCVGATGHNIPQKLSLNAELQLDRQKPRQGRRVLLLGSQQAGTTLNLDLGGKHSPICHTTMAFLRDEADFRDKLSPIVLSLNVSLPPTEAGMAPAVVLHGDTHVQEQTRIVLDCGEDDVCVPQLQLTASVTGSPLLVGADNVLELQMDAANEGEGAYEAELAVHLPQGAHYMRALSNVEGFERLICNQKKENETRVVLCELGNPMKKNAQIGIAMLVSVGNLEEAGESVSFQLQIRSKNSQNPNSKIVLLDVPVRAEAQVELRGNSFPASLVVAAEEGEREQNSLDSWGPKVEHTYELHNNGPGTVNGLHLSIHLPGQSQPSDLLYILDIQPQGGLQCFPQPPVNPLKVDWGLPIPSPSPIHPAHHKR
Chain of GP IIb/IIIa (P08514 891-1039 limits assumed): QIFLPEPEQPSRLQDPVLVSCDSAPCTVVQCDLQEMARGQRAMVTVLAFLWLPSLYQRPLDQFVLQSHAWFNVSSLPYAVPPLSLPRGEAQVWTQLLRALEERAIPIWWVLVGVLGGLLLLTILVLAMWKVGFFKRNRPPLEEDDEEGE
Chain of GP IIb/IIIa (P05106 27-788): as the sequence (P05106 27-788) above

On to `Cc1cc(C)c(S(=O)(=O)N[C@@H](CNC(=O)c2ccc(N3CCC(Nc4nc5ccccc5[nH]4)CC3)cc2)C(=O)O)c(C)c1` [Example 31, 3-[4-{4-(1H-Benzimidazol-2-ylamino)piperidin-1-yl}benzoylamino]-(2S)-{(2,4,6-trimethylbenzenesulfonyl)amino}propionic acid], for which the IC50 in assay [1] and in assay [2] was no more than 1 nM in each case.
Turning to `O=C(NC[C@H](NS(=O)(=O)c1ccc(F)cc1)C(=O)O)c1ccc(N2CCC(Nc3nc4ccccc4[nH]3)CC2)cc1` [Example 33, 3-[4-{4-(1H-Benzimidazol-2-ylamino)piperidin-1-yl}benzoylamino]-(2S)-{(4-fluoro-benzenesulfonyl)amino}propionic acid], the IC50 in assay [1] and in assay [2] was no more than 1 nM each time.
`O=C(NC[C@H](NS(=O)(=O)c1ccc([N+](=O)[O-])cc1)C(=O)O)c1ccc(N2CCC(Nc3nc4ccccc4[nH]3)CC2)cc1` [Example 35, 3-[4-{4-(1H-Benzimidazol-2-ylamino)piperidin-1-yl}benzoylamino]-(2S)-{(4-nitro-benzenesulfonyl)amino}propionic acid]: the IC50 in assay [1] is no more than 1 nM; in assay [2], no more than 1 nM; in assay [3], no more than 70 nM.
Take `Nc1ccc(S(=O)(=O)N[C@@H](CNC(=O)c2ccc(N3CCC(Nc4nc5ccccc5[nH]4)CC3)cc2)C(=O)O)cc1` [Example 36, (2S)-(4-Aminobenzenesulfonyl)amino-3-[4-{4-(1H-benzimidazol-2-ylamino)piperidin-1-yl}benzoylamino]-propionic acid]: the IC50 in assay [1] and in assay [2] was no more than 1 nM each time.
For the molecule `O=C(NC[C@H](NS(=O)(=O)c1ccccc1)C(=O)O)c1ccc(N2CCC(Nc3nc4ncccc4[nH]3)CC2)cc1` [Example 38, (2S)-Benzenesulfonylamino-3-[4-[4-{(1H-imidazo[4,5-b]pyridin-2-yl)amino}piperidin-1-yl]benzoyl-amino]propionic acid], the IC50 in assay [1] and in assay [2] was no more than 1 nM throughout.
As for `O=C(NC[C@H](NS(=O)(=O)c1ccccc1)C(=O)O)c1ccc(N2CCC(NC3=NCCCN3)CC2)c(F)c1F` [Example 57, (2S)-Benzenesulfonylamino-3-[2,3-difluoro-4-{4-(1,4,5,6-tetrahydropyrimidin-2-ylamino)piperidin-1yl}benzoylamino]propionic acid], the IC50 in assay [1] is no more than 1 nM; in assay [2], no more than 1 nM; in assay [3] it was no more than 70 nM.
Take `COc1ccc(S(=O)(=O)N[C@@H](CNC(=O)c2ccc(N3CCC(NC4=NCCCN4)CC3)c(F)c2)C(=O)O)cc1` [Example 73, 3-[3-Fluoro-4-{4-(1,4,5,6-tetrahydropyrimidin-2-ylamino)piperidin-1-yl}benzoyl-amino]-(2S)-{(4-methoxybenzenesulfonyl)amino}propionic acid]: the half-inhibitory concentration (IC50) in assay [1] and in assay [2] was no more than 1 nM throughout.
As for `O=C(NC[C@H](NS(=O)(=O)c1ccc(O)cc1)C(=O)O)c1ccc(N2CCC(NC3=NCCCN3)CC2)c(F)c1` [Example 75, 3-[3-Fluoro-4-{4-(1,4,5,6-tetrahydropyrimidin-2-ylamino)piperidin-1-yl}benzoyl-amino]-(2S)-{(4-hydroxybenzenesulfonyl)amino}propionic acid], the IC50 in assay [1] is no more than 1 nM; in assay [2] it was no more than 1 nM; in assay [3], no more than 70 nM.
For the molecule `O=C(O)c1ccc(S(=O)(=O)N[C@@H](CNC(=O)c2ccc(N3CCC(N=C4NCCCN4)CC3)c(F)c2)C(=O)O)cc1` [Example 78, (2S)-(4-Carboxybenzenesulfonyl)amino-3-[3-fluoro-4-{4-(1.4.5.6-tetrahydropyrimidin-2-ylamino)-piperidin-1-yl}benzoylamino]propionic acid], the IC50 in assay [1] and in assay [2] was no more than 1 nM in each case.
On to `COc1cc(C(=O)NC[C@H](NS(=O)(=O)c2ccccc2)C(=O)O)ccc1N1CCC(NC2=NCCCN2)CC1` [Example 93, (2S)-Benzenesulfonylamino-3-[3-methoxy-4-{4-(1,4,5,6tetrahydropyrimidin-2-ylamino)piperidin-1-yl}-benzoylamino]propionic acid], for which the IC50 in assay [1] was no more than 1 nM; in assay [2], no more than 1 nM; in assay [3], no more than 70 nM.
`O=C(NC[C@H](NS(=O)(=O)c1ccccc1)C(=O)O)c1ccc(N2CCC(N=C3NCCCN3)CC2)c(O)c1` [Example 95, (2S)-Benzenesulfonylamino-3-[3-hydroxy-4-{4-(1,4,5,6tetrahydropyrimidin-2-ylamino)piperidin-1-yl}-benzoylamino]propionic acid]: the IC50 in assay [1] and in assay [2] was no more than 1 nM in each case.
